“Also recorded” adds a separate entry of the source.
Assays:
[1] = test system: T. b. brucei EATRO 110; assay: Drug screen, acute EATRO 110 mouse infection (Tables 1, 3); type: in vivo, Trypanosoma brucei brucei (in Swiss-Webster mice); conditions: for activity in words: 300 mg/kg; for activity in the acute (short term) EATRO 110 model, in words: text summary
Description: (§1) T. b. brucei EATRO 110 isolate was maintained as described (Bacchi, C. J., H. C. Nathan, S. H. Hutner, P. P. McCann and A. Sjoerdsma; Polyamine metabolism: a potential chemotherapeutic target in trypanosomes. Science 210: 332-334, 1980). It produces an acute, rapidly fatal parasitemia which is lethal to mice 3-5 days after inoculation. Two T. B. brucei strains, TREU 667 and LUMP 1001 developed by Jennings and coworkers (Jennings, F. W., D. D. Whitelaw and G. M. Urquhart; The relationship between duration of infection with Trypanosoma brucei in mice and the efficacy of chemotherapy. Parasitology 75: 143-153, 1977/Jennings, F. W. and G. D. Gray; Relapsed parasitemia following chemotherapy of chronic T. brucei infections in mice and its relation to cerebral trypanosomes; Contr. Microbiol. Immunol. 7 147-154, 1983) were used as CNS models. Both produce infections which are refractory to Berenil® (diminazene aceturate) and develop within 21 days after inoculation. They are not usually fatal until >40 days after inoculation. LUMP 1001 causes a more virulent CNS infection than TREU 667, and is regarded as more difficult to cure (Jennings, F. W. and G. D. Gray. Relapsed parasitemia following chemotherapy of chronic T. brucei infections in mice and its relation to cerebral trypanosomes. Contr. Microbiol. Immunol. 7 147-154, 1983).
(§2) Swiss-Webster (25-30 g) mice were used throughout. In the EATRO 110 model, groups of 100 mice were infected (10^5 trypanosomes/mouse) and the infection was allowed to develop 24 hours before commencing therapy. Animals were divided into groups of 5 before treatment. Cured animals survived >30 days beyond deaths of controls. All compounds were administered by i.p. injection.
Other methods as in Table 1.

[2] = test system: human colon carcinoma cells; conditions: cited from earlier work
[3] = test system: T. b. brucei TREU 667; conditions: infection developed within 21 days; cited from earlier work
[4] = test system: T. b. brucei TREU 667; assay: CNS model, T. b. brucei TREU 667 infection in mice (Table 4); type: in vivo, Trypanosoma brucei brucei (in Swiss-Webster mice); conditions: for efficacy in CNS model in words: 100 mg/kg × 6 doses/days
Description: as §1
The models for […] nervous system infections used TREU 667 and LUMP 1001 strains which were stored frozen and passaged once in rats before infection of mice. Maintenance and use of these screens were as described (Clarkson, A. B. Jr., C. J. Bacchi, G. H. Mellon, H. C. Nathan, P. P. McCann and A. Sjoerdsma. Efficacy of DFMO+blemoycin in a mouse model of central nervous system African trypanosomiasis. Proc. Natl. Acad. Sci. USA. 80: 5729-5733, 1983/Clarkson, A. B. Jr., E. J. Biene, C. J. Bacchi, P. P. McCann, S. H. Hutner and A. Sjoerdsma. New drug combination for experimental late stage African trypanosomiasis: DFMO with suramin. Am. J. Trop. Med. Hyg. 33: 1073-1077, 1984/Dube, D. K., G. Mpimbaza, A. C. Allison, E. Lederer and L. Rovis. Antitrypanosomal activity of sinefungin, Am. J. Trop. Med. Hyg. 32: 31-33, 1983/Fish, W. R., J. J. Marr, R. L. Berens, D. L. Looker, D. J. Nelson, S. LaFon and A. E. Balber. Inosine analogs as chemotherapeutic agents for African trypanosomes: metabolism in trypanosomes and efficacy in tissue culture. Anti-microb. Ag. Chemother. 27: 33-36, 1985/Clazer, R. I., and L. S. Lloyd. Effects of 8-azaadenosine and formycin on cell lethality and the synthesis and methylation of nucleic acids in human colon carcinoma cells in culture. Biochem. Pharmacol. 31: 3207-3214, 1982/Bacchi, C. J., H. C. Nathan, A. B. Clarkson, Jr., E. J. Bienen, A. J. Bitonti, P. P. McCann and A. Sjoerdsma. Activity of the ornithine decarboxylase inhibitors DL-α-difluoromethylornithine and monofluormethyldehydroornithine methylester alone and in combination with suramin against Trypanosoma brucei brucei central nervous system models, Am. J. Trop. Med. Hyg. (in press)). Briefly, groups of 100-120 mice were infected and the infections allowed to develop until day 21, when the animals were separated into groups of 10 and therapy commenced. Controls were treated with Berenil (40 mg/kg) on day 21. These always relapsed 40-70 days after treatment. Parasitemia was followed by examining tail vein blood smears once weekly. Animals which had relapsed were removed from cages. TREU 667 infections were followed >225 days after inoculation and LUMP 1001 were followed >280 days, as determined by the relapse pattern in previous work (Bacchi, C. J., H. C. Nathan, A. B. Clarkson, Jr., E. J. Bienen, A. J. Bitonti, P. P. McCann and A. Sjoerdsma. Activity of the ornithine decarboxylase inhibitors DL-α-difluoromethylornithine and monofluormethyldehydroornithine methylester alone and in combination with suramin against Trypanosoma brucei brucei central nervous system models. Am. J. Trop. Med. Hyg. (in press)). […]

[5] = test system: T. b. brucei LUMP 1001; assay: CNS model, T. b. brucei LUMP 1001 infection in mice (Table 5); type: in vivo, Trypanosoma brucei brucei (in Swiss-Webster mice); conditions: control: Berenil 40 mg/kg on day 21
Description: as §1
The models for […] nervous system infections used TREU 667 and LUMP 1001 strains which were stored frozen and passaged once in rats before infection of mice. Maintenance and use of these screens were as described (Clarkson, A. B. Jr., C. J. Bacchi, G. H. Mellon, H. C. Nathan, P. P. McCann and A. Sjoerdsma. Efficacy of DFMO+blemoycin in a mouse model of central nervous system African trypanosomiasis. Proc. Natl. Acad. Sci. USA. 80: 5729-5733, 1983/Clarkson, A. B. Jr., E. J. Biene, C. J. Bacchi, P. P. McCann, S. H. Hutner and A. Sjoerdsma. New drug combination for experimental late stage African trypanosomiasis: DFMO with suramin. Am. J. Trop. Med. Hyg. 33: 1073-1077, 1984/Dube, D. K., G. Mpimbaza, A. C. Allison, E. Lederer and L. Rovis. Antitrypanosomal activity of sinefungin, Am. J. Trop. Med. Hyg. 32: 31-33, 1983/Fish, W. R., J. J. Marr, R. L. Berens, D. L. Looker, D. J. Nelson, S. LaFon and A. E. Balber. Inosine analogs as chemotherapeutic agents for African trypanosomes: metabolism in trypanosomes and efficacy in tissue culture. Anti-microb. Ag. Chemother. 27: 33-36, 1985/Clazer, R. I., and L. S. Lloyd. Effects of 8-azaadenosine and formycin on cell lethality and the synthesis and methylation of nucleic acids in human colon carcinoma cells in culture. Biochem. Pharmacol. 31: 3207-3214, 1982/Bacchi, C. J., H. C. Nathan, A. B. Clarkson, Jr., E. J. Bienen, A. J. Bitonti, P. P. McCann and A. Sjoerdsma. Activity of the ornithine decarboxylase inhibitors DL-α-difluoromethylornithine and monofluormethyldehydroornithine methylester alone and in combination with suramin against Trypanosoma brucei brucei central nervous system models, Am. J. Trop. Med. Hyg. (in press)). Briefly, groups of 100-120 mice were infected and the infections allowed to develop until day 21, when the animals were separated into groups of 10 and therapy commenced. Controls were treated with Berenil (40 mg/kg) on day 21. […] Parasitemia was followed by examining tail vein blood smears once weekly. Animals which had relapsed were removed from cages.

[6] = test system: T. b. brucei LUMP 1001; conditions: infection developed within 21 days; cited from earlier work
[7] = test system: African trypanosomes; conditions: previous studies; cited from earlier work
[8] = test system: Pneumocystis Carinii; conditions: tissue culture; cited from earlier work
[9] = test system: Trypanosoma brucei gambiense; conditions: bone marrow tissue culture system; cited from earlier work
[10] = test system: mammalian cells; conditions: cited from earlier work
[11] = test system: Leishmania spp; conditions: previous studies; cited from earlier work
[12] = test system: T. cruzi; conditions: previous studies; cited from earlier work
[13] = test system: T. brucei subsp.; conditions: cited from earlier work
[14] = in vivo
Experimental: as §2

[15] = test system: Trypanosoma brucei rhodesiense; conditions: bone marrow tissue culture system; cited from earlier work
[16] = test system: mouse L cells; conditions: cited from earlier work
[17] = test system: human macrophages; conditions: cited from earlier work
[18] = Table 1, 250 mg/kg i.p., treatment begun 24 h post infection
[19] = Table 1, 300 mg/kg i.p., treatment begun 24 h post infection
[20] = Table 1, 2.5 mg/kg i.p. (9-DINO, sinefungin once daily for 3 days)
[21] = Table 1, 5 mg/kg i.p. (9-DINO, sinefungin once daily for 3 days)
[22] = Table 1, 10 mg/kg i.p. (9-DINO, sinefungin once daily for 3 days)
[23] = Table 1, 25 mg/kg i.p. (9-DINO, sinefungin once daily for 3 days)
[24] = Table 1, 50 mg/kg i.p. (9-DINO, sinefungin once daily for 3 days)
[25] = Table 1, 100 mg/kg i.p. (9-DINO, sinefungin once daily for 3 days)
[26] = Table 3, 0.05 mg/kg i.p. once daily for 3 days
[27] = Table 3, 0.1 mg/kg i.p. once daily for 3 days
[28] = Table 3, 0.25 mg/kg i.p. once daily for 3 days
[29] = Table 3, 0.5 mg/kg i.p. once daily for 3 days

Compound: O=c1ncnc2n([C@H]3O[C@@H](CO)[C@H](O)[C@@H]3O)[nH]cc1-2 (stereo in doubt) [Allopurinol Riboside, reference compound]
- activity in words [1]: completely inactive
- # Cured/Total [1, 18]: 0/5
- % Cured [1, 18]: 0%

Compound: Oc1ncnc2[nH]ncc12 [Allopurinol, reference compound]
- activity in words [1]: completely inactive
- # Cured/Total [1, 19]: 0/5
- % Cured [1, 19]: 0%

Compound: Nc1ncnc2c([C@@H]3O[C@H](CO)[C@@H](O)[C@H]3O)n[nH]c12 [formycin A]
- incorporation into DNA in words [2]: can be incorporated into DNA

Compound: N=C(N)c1ccc(N=NNc2ccc(C(=N)N)cc2)cc1 [Berenil, diminazene aceturate, reference compound]
- response of infection in words [3]: refractory
- relapse after treatment ([4]; control: Berenil 40 mg/kg on day 21): 40 to 70 days
- relapse after treatment [5]: 40 to 70 days
- response of infection in words [6]: refractory

Compound: O=c1[nH]cnc2c([C@@H]3O[C@H](CO)[C@@H](O)[C@H]3O)n[nH]c12 [Formycin B, 7-hydroxypyrazolo (4,3-d) pyrimidine ribonucleoside]
- activity in words [7]: active
- activity in words [8]: active
- activity in words [9]: active at very low concentrations; also recorded: somewhat more efficacious than 9-deazainosine
- cleavage into ribose and purine analog moieties [10]: cannot be cleaved into ribose and purine analog moieties
- metabolism in words [10]: metabolized by mammalian cells to its aminated analog formycin A
- curative / active dose range ([1]; EATRO 110, text): 5 to 100 mg/kg
- # Cured/Total [1, 20]: 5/5
- % Cured [1, 20]: 100%
- # Cured/Total [1, 21]: 4/5
- % Cured [1, 21]: 80%
- # Cured/Total [1, 22]: 5/5
- % Cured [1, 22]: 100%
- # Cured/Total [1, 23]: 9/10
- % Cured [1, 23]: 90%
- # Cured/Total [1, 24]: 5/5
- % Cured [1, 24]: 100%
- # Cured/Total [1, 25]: 4/5
- % Cured [1, 25]: 80%
- # Cured/Total [1, 26]: 0/5
- % Cured [1, 26]: 0%
- # Cured/Total [1, 27]: 0/5
- % Cured [1, 27]: 0%
- # Cured/Total [1, 28]: 1/10
- % Cured [1, 28]: 10%
- # Cured/Total [1, 29]: 3/5
- % Cured [1, 29]: 60%
- relative activity of formycin B versus 9-DINO ([1]; comparison of activity ranges): > 10 X
- activity in the acute (short term) EATRO 110 model, in words [1]: most active; also recorded: extremely active
- activity in the acute (short term) EATRO 110 model, in words ([1]; listed as formycin B): greatest activity; also recorded: more active than 9-DINO
- activity in words [11]: active
- activity in words [12]: active
- metabolism in words [13]: can be aminated by T. brucei subsp. and converted to analogs of ATP
- toxicity in words ([14]; 100 mg/kg): toxicity was observed; also recorded: loss of hair
- mortality ([14]; mouse, in vivo, ip, 100 mg/kg): 20%
- dose at which toxicity appeared ([14]; short term model, Table 1): 100 mg/kg
- activity in words [15]: active at very low concentrations; also recorded: somewhat more efficacious than 9-deazainosine
- metabolism in words [16]: Mouse L cells can convert formycin B to the analogs of adenine nucleotides and incorporate the ATP analog into RNA
- # Cured/Total ([4]; 5 mg/kg i.p., 7 days): 0/8
- % Cured ([4]; 5 mg/kg i.p., 7 days): 0%
- Avg. Day of Relapse (Range) ([4]; 5 mg/kg i.p., 7 days): 42 (37-49) Day
- # Cured/Total ([4]; 10 mg/kg i.p., 7 days): 0/9
- % Cured ([4]; 10 mg/kg i.p., 7 days): 0%
- Avg. Day of Relapse (Range) ([4]; 10 mg/kg i.p., 7 days): 40 (37-41) Day
- # Cured/Total ([4]; 25 mg/kg i.p., 7 days): 0/10
- % Cured ([4]; 25 mg/kg i.p., 7 days): 0%
- Avg. Day of Relapse (Range) ([4]; 25 mg/kg i.p., 7 days): 40 (37-68) Day
- # Cured/Total ([4]; 50 mg/kg i.p., 6 days): 0/10
- % Cured ([4]; 50 mg/kg i.p., 6 days): 0%
- Avg. Day of Relapse (Range) ([4]; 50 mg/kg i.p., 6 days): 34 (23-35) Day
- # Cured/Total ([4]; 100 mg/kg i.p., 6 days): 0/9
- % Cured ([4]; 100 mg/kg i.p., 6 days): 0%
- Avg. Day of Relapse (Range) ([4]; 100 mg/kg i.p., 6 days): 35 days
- efficacy in CNS model in words [4]: not curative
- efficacy in CNS model in words ([4]; listed as formycin B): failed to protect
- conversion to adenine nucleotide analogs / incorporation in words [17]: this occurred in human macrophages

Reference: patent US4914086A, “Method for treating African human and veterinary trypanosomiases” (priority 1987, dated 1990)
